Data on three molecules can be found in patent US20090271892A1, “LYSOPHOSPHATIDIC ACID ACYLTRANSFERASE GENES AND USES THEREOF” (priority 2006, published 2009).

Like-named read-outs stand apart in the source and are kept apart here.

For data set [1], the target named is Brassica napus LPAAT (BnLPAAT) (Brassica napus, UniProt Q9XFW4). Nature of the data set: Competitive LPAAT assay using C18:1-CoA and C19CA-CoA. The data set is classed as biochemical. The procedure: (§1) The ^3H-oleoyl-lysophosphatidic acid (^3HLPA, ref. NET1100; 600 μM, 28 mCi mmol^−1) and ^14C-Oleoyl-CoA (^14CC18:1-CoA, ref. NET651A; 300 μM, 11 mCi mmol^−1) radio-labeled substrates were purchased from Perkin Elmer. Assays were carried out in a final volume of 300 μl and contained Tris/HCl (100 mM, pH7.5), Triton X-100 (0.01% w/v), BSA (1 mg/ml), ascorbic acid (10 mM), EDTA (2 mM), 100 μl LPA and 50 μl acyl-CoA. The reaction was started by the addition of 30 μl of microsomes, and conducted in a glass vial placed in a Eppendorf Thermomixer-compact apparatus (30° C., 350 rpm). The reaction was stopped after incubation (from 0 to 120 min) by addition of 720 μl of chloroform/methanol (1:1). To separate the phases, 280 μl of 1M KCl in 0.2 M H3PO4 were added and the whole mixture was vortexed for 10 s before centrifugation at 1300 g, 5 min at room temperature. The upper aqueous phase was discarded and 2×25 μl of the remaining organic phase was spotted on to silica gel 60 ÅF254 TLC plates (ref. 1.05715, Merck) and developed in chloroform/methanol/NH4OH/water (65:25:0.9:3). The phosphatidic acid spot was visualized by iodine revelation and collected for scintillation counting.
Sequence of Brassica napus LPAAT (BnLPAAT) (Q9XFW4 other isoform, or with tags, fused parts or gaps): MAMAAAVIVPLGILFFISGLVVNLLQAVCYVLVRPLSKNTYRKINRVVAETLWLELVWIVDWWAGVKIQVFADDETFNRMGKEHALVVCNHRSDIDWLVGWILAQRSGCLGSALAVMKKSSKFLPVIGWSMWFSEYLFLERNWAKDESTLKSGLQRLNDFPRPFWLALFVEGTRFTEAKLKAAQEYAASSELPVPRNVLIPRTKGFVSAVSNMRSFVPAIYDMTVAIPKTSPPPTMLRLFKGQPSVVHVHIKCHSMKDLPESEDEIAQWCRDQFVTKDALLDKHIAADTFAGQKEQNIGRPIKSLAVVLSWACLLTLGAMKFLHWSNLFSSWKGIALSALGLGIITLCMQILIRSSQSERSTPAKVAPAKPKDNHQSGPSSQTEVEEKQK
(§2) Radioactivity measurement was performed in 10 mL Ultimagold (ref. 6013329, Perkin Elmer) using a liquid scintillation analyzer (Tri-Carb 2100TR, Packard) for determination of ^3H and ^14C separately.
(§3) […] For all experimental conditions, data are derived from three experiments with 4 replicates each.
(§4) LPAAT selectivity for the two substrates is calculated as follows:
(§5) Selectivity for C18:1-CoA: S^C18:1-CoA=^14C/^3H
(§6) Selectivity for C19CA-CoA: S^C19:1CA-CoA=(^3H—^14C)/^3H
(§7) in which, ^3H and ^14C are the molar quantity of produced PA and the molar quantity of ^14C18:1 incorporated into this PA. These molar quantities are calculated from the corresponding ^3H and ^14C radioactivity levels measured in the phosphatidic acid spots scraped from TLC plates. Selectivity is expressed as the fraction of the specific fatty acid incorporated out of the total incorporated at the sn-2 position.

Data set [2] addresses Litchi sinensis LPAAT (LsLPAAT) (Litchi chinensis, UniProt A0A346D9Z1). Described as above. The format is biochemical. The procedure:
as §1, §2, §3, §4, §5, §6, §7

Substrate in data set [3]: CCCCCCCC/C=C\CCCCCCCC(=O)SCCNC(=O)CCNC(=O)[C@H](O)C(C)(C)COP(=O)(O)OP(=O)(O)OC[C@H]1O[C@@H](n2cnc3c(N)ncnc32)[C@H](O)[C@@H]1OP(=O)(O)O
Nature of the data set: LPAAT assay, kinetic parameters with C18:1-CoA, E. coli JC201 microsomes. The format is biochemical, Litchi sinensis. The conditions noted are these: other: C18:1-CoA 0-50 μM, 10 min, 30° C., pH7.5, N = 5, pH 7.5. The procedure:
The inventors have identified one putative Lysophosphatidic Acid-Acyl Transferase from Lychee (SEQ ID No 2). They also have obtained a mutated protein derived from this protein, which is depicted as SEQ ID No 1.
Plasmids pEW108 and 117 comprising genes coding for SEQ ID No 1 and SEQ ID No 2 respectively under the control of the araBAD promoter (Guzman, L-M. et al. (1995) J Bacteriology 177: 4121-4130) were prepared and used to transform and complement an E. coli strain. The araBAD promoter is induced by arabinose, repressed by glucose and is used in the art to express polynucleotides in a controlled manner.
The following experiments were performed with the Escherichia coli JC201 mutant strain, which is temperature conditional in endogenous LPAAT activity and able to grow at 30° C. but not at 44° C. (genotype plsC, described in Coleman, 1990 J. Biol. Chem., 265 (28), 17215-21.). These bacteria were kept at −80° C. as 1 ml glycerol stocks. For E. coli JC201 transformation, one glycerol stock was diluted in 15 mL of Luria-Bertani (ref. L3022, Sigma) liquid medium and cultivated overnight at 30° C. […] Optical density was measured at 600 nm and each flask was then cultivated for 6 hours at 30 and 44° C. respectively in order to check by optical density measurement that bacterial growth occurs at 30° C. but not at 44° C. […]

Data set [4] is described as follows: LPAAT assay with C18:1-CoA as substrate (microsomes of transformed E. coli). The format is biochemical. As to conditions: expressed in transformed E. coli mutant strains; FIG. 1. The method, then:
The ^3H-oleoyl-lysophosphatidic acid (^3HLPA, ref. NET1100; 600 μM, 28 mCi mmol^−1) and ^14C-Oleoyl-CoA (^14CC18:1-CoA, ref. NET651A; 300 μM, 11 mCi mmol^−1) radio-labeled substrates were purchased from Perkin Elmer. Assays were carried out in a final volume of 300 μl and contained Tris/HCl (100 mM, pH7.5), Triton X-100 (0.01% w/v), BSA (1 mg/ml), ascorbic acid (10 mM), EDTA (2 mM), 100 μl LPA and 50 μl acyl-CoA. The reaction was started by the addition of 30 μl of microsomes, and conducted in a glass vial placed in a Eppendorf Thermomixer-compact apparatus (30° C., 350 rpm). The reaction was stopped after incubation (from 0 to 120 min) by addition of 720 μl of chloroform/methanol (1:1). […]
as §2
A first LPAAT assay was performed as described above in order to determine optimal LPAAT activity using ^14CC18:1-CoA as substrate: • Effect of incubation time was tested for 0, 1, 3, 5, 10, 30, 60 and 120 min with 50 μM ^14CC18:1-CoA at 30° C. • In order to determine LPAAT kinetic parameters, the effect of C18:1-CoA concentration was tested as described above. […] For all experimental conditions, the mean of 2 values is calculated. […]

Data set [5] can be described thus: Competitive LPAAT assay using C18:1-CoA and C19CA-CoA. The conditions noted are these: competitive assays using C19CA-CoA and C18:1-CoA. The data set is classed as biochemical. The method, then: as §1, §2, §3, §4, §5, §6, §7
The mark [6] stands for this setting: 50 μM C18:1-CoA, 25 μM C19CA, fraction of total incorporated at sn-2, read-out: Selectivity for C19CA-CoA in competition with C18:1-CoA.
Setting [7] is: 50 μM C18:1-CoA, 50 μM C19CA, fraction of total incorporated at sn-2, read-out: Selectivity for C19CA-CoA in competition with C18:1-CoA.
Where [8] appears, read: average over the concentrations, read-out: Average selectivity for C19CA-CoA in competition with C18:1-CoA.

For `CCCCCCCCC1CC1CCCCCCCC(=O)SCCNC(=O)CCNC(=O)[C@H](O)C(C)(C)COP(=O)(O)OP(=O)(O)OC[C@H]1O[C@@H](n2cnc3c(N)ncnc32)[C@H](O)[C@@H]1OP(=O)(O)O` (stereo partly shown) [C19CA-CoA], the selectivity ratio in data set [1] (setting [6]) is 0.01; in data set [1] (setting [7]) it was 0.19; in data set [1] (setting [8]) it was 0.054 ± 0.057; in data set [2] (25 μM C18:1-CoA, 10 μM C19CA, fraction of total incorporated at sn-2, read-out: Selectivity for C19CA-CoA in competition with C18:1-CoA) it was 0.15; in data set [2] (25 μM C18:1-CoA, 25 μM C19CA, fraction of total incorporated at sn-2, read-out: Selectivity for C19CA-CoA in competition with C18:1-CoA) it was 0.34; in data set [2] (setting [6]) it was 0.28. Moreover, the selectivity ratio was found to be 0.35 in data set [2] (setting [7]) and 0.377 ± 0.101 in data set [2] (setting [8]). The “Fatty acids incorporated at the sn-2 position being 19:0CA” value in data set [2] (in competition with C18:1-CoA, even at low total concentrations of acyl-CoA) is given as “up to 35%”.

B1: Litchi sinensis LPAAT (LsLPAAT, pEW117), SEQ ID No 2 (Litchi chinensis) (protein)
chain: MAVAAAAVVVPLGLLFFISGLVVNLFQAVCFVTIRPLSKNLYRRINRVLAELLWLELVWIVDWWAGVKIKLYTDSETFHLMGKEHALVVSNHRSDIDWLVGWVLAQRSGCLGSALAVMKKSSKLLPVIGWSMWFSEYLFLERNWAKDESTLRSGLQRLKDFPKPFWLALFVEGTRFTQAKLLAAQEYATSTGLPIPRNVLIPRTKGFVASVSHMRSFVPAIYDTTVAIPKSSPAPTMLRLFKGQSSVVHVHIKRCLMKDLPETDDTVAQWCRDIFVAKDELLDKHNVEDTFNDGELQDTSRPVKSLLVVTSWACLVVLGALKFLQWSSLLSSWKGIAFSALGLGVVTVLMHILILFSQSERSTPAKVAPAKPKNNGEPSTRSQDKQK
B1: in data set [3], the Km (as a rule, the substrate concentration at which the rate is half of its maximum) turned out to be 3.6 ± 1.7 µM and the Vmax – broadly, the rate approached at saturating substrate – was 0.000115 µmol/min/mg.

B2: LsLPAAT: L. sinensis LPAAT; clone not stated in Table 2, probably pEW108 / SEQ ID No 1 (protein)
chain: MAVAAAAVVVPLGLLFFISGLVVNLFQAVCFVTIRPLSKNLYRRINRVLAELLWLELVWIVDWWAGVKIKLYTDSETFHLMGKEHALVVSNHRSDIDWLVGWVLAQRSGCLGSALAVMKKSSKLLPVIGWSMWFSEYLFLERNWAKDESTLRSGLQRLKDFPKPFWLALFVEGTRFTQAKLLAAQEYATSTGLPIPRNVLIPRTKGFVASVSHMRSFVPAIYDTTVAIPKSSPAPTMLRLFKGQSSVVHVHIKRCLMKDLPETDDTVAQWCRDIFVAKDELLDKHNVEDTFNDGELQDTSRPVKSLLVVTSWACLVVLGALKFLQWSSLLSSWKGIAFSALGLGVVTVLMHILILFSQSERSTPAKVAPAKPKNNGEPSTRSPAHPK
modifications: synthetic LPAAT derived from litchi
Turning to B2, the “esterification of 14C-C18:1-CoA on 3H-LPA (presence of PA in lipid fraction)” value in data set [4] is “fully functional”. For the same molecule, the “use of C19CA-CoA as substrate” value in data set [5] is reported as “can use C19CA-CoA as substrate”.
